# “And” between values parts separate entries of the source, which are not always exact repeats. Equal entries are not always repeated.
# Tested on: SYO-1 complex spheroid growth, percent test/control
# Assay: Anticancer human tumor SYO-1 cell line growth inhibition [Asc];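 also: compound exposure lasted 7 days after spheroids grew 3 days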;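 as to viability, T/C: 100% = DMSO vehicle control viability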
# Details: for viability, T/C: stronger effect = lower value
# Outline: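 Spheroid model: tumor line + HUVEC + hMSC. Single agents and combinations; top conc. at/near clinical Cmax (10 microM if undetermined), half-log dilutions. DMSO stocks at 800-fold test concentration.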
compound,measurement,setting,value
O=C(c1ccc(F)c(F)c1Nc1ccc(I)cc1F)N1CC(O)([C@@H]2CCCCN2)C1 + Cc1c(S(C)(=O)=O)c(-c2cc(F)cc(N3CCN(c4ccc(NS(=O)(=O)c5ccc(NC(CCN6CCC(C(=O)OCCCP(=O)(O)O)CC6)CSc6ccccc6)c(S(=O)(=O)C(F)(F)F)c5)cc4)CC3)c2)c(-c2ccc(Cl)cc2)n1C(C)C,IC50,"curve of first compound, second compound 0.0316 µM",> 1 µM
same,IC50,"curve of first compound, second compound 0.1 µM",> 1 µM
same,IC50,"curve of first compound, second compound 0.316 µM",> 1 µM
same,IC50,"curve of first compound, second compound 1 µM",> 1 µM
same,IC50,"curve of first compound, second compound 3.16 µM",> 1 µM
same,IC50,"curve of first compound, second compound 10 µM",> 1 µM
same,"viability, T/C","second compound 0.0316 µM, first compound 0.00316 µM",98.2%
same,"viability, T/C","second compound 0.0316 µM, first compound 0.01 µM",102%
same,"viability, T/C","second compound 0.0316 µM, first compound 0.0316 µM",106%
same,"viability, T/C","second compound 0.0316 µM, first compound 0.1 µM",99.6%
same,"viability, T/C","second compound 0.0316 µM, first compound 0.316 µM",110%
same,"viability, T/C","second compound 0.0316 µM, first compound 1 µM",113%
same,"viability, T/C","second compound 0.1 µM, first compound 0.00316 µM",95.3%
same,"viability, T/C","second compound 0.1 µM, first compound 0.01 µM",101%
same,"viability, T/C","second compound 0.1 µM, first compound 0.0316 µM",97.1%
same,"viability, T/C","second compound 0.1 µM, first compound 0.1 µM",102%
same,"viability, T/C","second compound 0.1 µM, first compound 0.316 µM",103%
same,"viability, T/C","second compound 0.1 µM, first compound 1 µM",99.8%
same,"viability, T/C","second compound 0.316 µM, first compound 0.00316 µM",95.7%
same,"viability, T/C","second compound 0.316 µM, first compound 0.01 µM",93.6%
same,"viability, T/C","second compound 0.316 µM, first compound 0.0316 µM",94.2%
same,"viability, T/C","second compound 0.316 µM, first compound 0.1 µM",106%
same,"viability, T/C","second compound 0.316 µM, first compound 0.316 µM",99%
same,"viability, T/C","second compound 0.316 µM, first compound 1 µM",104%
same,"viability, T/C","second compound 1 µM, first compound 0.00316 µM",91.6%
same,"viability, T/C","second compound 1 µM, first compound 0.01 µM",89.5%
same,"viability, T/C","second compound 1 µM, first compound 0.0316 µM",100%
same,"viability, T/C","second compound 1 µM, first compound 0.1 µM",98.9%
same,"viability, T/C","second compound 1 µM, first compound 0.316 µM",102%
same,"viability, T/C","second compound 1 µM, first compound 1 µM",97.1%
same,"viability, T/C","second compound 3.16 µM, first compound 0.00316 µM",91.9%
same,"viability, T/C","second compound 3.16 µM, first compound 0.01 µM",92.1%
same,"viability, T/C","second compound 3.16 µM, first compound 0.0316 µM",87.2%
same,"viability, T/C","second compound 3.16 µM, first compound 0.1 µM",99.8%
same,"viability, T/C","second compound 3.16 µM, first compound 0.316 µM",101%
same,"viability, T/C","second compound 3.16 µM, first compound 1 µM",93.4%
same,"viability, T/C","second compound 10 µM, first compound 0.00316 µM",85.8%
same,"viability, T/C","second compound 10 µM, first compound 0.01 µM",81.3%
same,"viability, T/C","second compound 10 µM, first compound 0.0316 µM",92.2%
same,"viability, T/C","second compound 10 µM, first compound 0.1 µM",85.6%
same,"viability, T/C","second compound 10 µM, first compound 0.316 µM",71.8%
same,"viability, T/C","second compound 10 µM, first compound 1 µM",67.6%
C#Cc1c(F)ccc2cc(O)cc(-c3ncc4c(N5CC6CCC(C5)N6)nc(OCC56CCCN5CC(F)C6)nc4c3F)c12 (stereo not drawn),"viability, T/C",compound 0.0316 µM,111% and 98.5% and 108%
same,"viability, T/C",compound 0.1 µM,95.5% and 92.2% and 96.9%
same,"viability, T/C",compound 0.316 µM,108% and 95.5% and 110%
same,"viability, T/C",compound 1 µM,98.9% and 101% and 109%
same,"viability, T/C",compound 3.16 µM,111% and 117% and 105%
same,"viability, T/C",compound 10 µM,105% and 97.4% and 103%
same,IC50,curve of compound,> 10 µM
C=C(F)C(=O)N1CCN(c2nc(OCC3CCCN3C)nc3c2CCN(c2cccc4cccc(Cl)c24)C3)CC1CC#N (stereo not drawn),"viability, T/C",compound 0.0316 µM,107% and 98.8% and 99.1%
same,"viability, T/C",compound 0.1 µM,102% (2×) and 96.3%
same,"viability, T/C",compound 0.316 µM,97.5% and 101% and 100%
same,"viability, T/C",compound 1 µM,95.2% and 101% and 113%
same,"viability, T/C",compound 3.16 µM,97.3% and 90.3% and 92.2%
same,"viability, T/C",compound 10 µM,0.28% and 0.79% and 0.39%
same,IC50,curve of compound,5.54 µM and 5.31 µM and 5.37 µM
NC(=O)C(=Cn1cnc(-c2cc(C(F)(F)F)cc(C(F)(F)F)c2)n1)c1cncnc1 + CCN1C(C(=O)NC23CCC(C(=O)O)(CC2)CC3)C(c2cccc(Cl)c2F)C2(C(=O)Nc3cc(Cl)ccc32)C12CCCCC2,IC50,"curve of first compound, second compound 0.00949 µM",0.165 µM
same,IC50,"curve of first compound, second compound 0.03 µM",0.134 µM
same,IC50,"curve of first compound, second compound 0.0949 µM",0.0417 µM
same,IC50,"curve of first compound, second compound 0.3 µM",< 0.000949 µM
same,IC50,"curve of first compound, second compound 0.949 µM",< 0.000949 µM
same,IC50,"curve of first compound, second compound 3 µM",< 0.000949 µM
same,"viability, T/C","second compound 0.00949 µM, first compound 0.000949 µM",96.3%
same,"viability, T/C","second compound 0.00949 µM, first compound 0.003 µM",96.1%
same,"viability, T/C","second compound 0.00949 µM, first compound 0.00949 µM",99.3%
same,"viability, T/C","second compound 0.00949 µM, first compound 0.03 µM",87.8%
same,"viability, T/C","second compound 0.00949 µM, first compound 0.0949 µM",87.5%
same,"viability, T/C","second compound 0.00949 µM, first compound 0.3 µM",9.44%
same,"viability, T/C","second compound 0.03 µM, first compound 0.000949 µM",99.4%
same,"viability, T/C","second compound 0.03 µM, first compound 0.003 µM",94.6%
same,"viability, T/C","second compound 0.03 µM, first compound 0.00949 µM",90.1%
same,"viability, T/C","second compound 0.03 µM, first compound 0.03 µM",90.5%
same,"viability, T/C","second compound 0.03 µM, first compound 0.0949 µM",69.4%
same,"viability, T/C","second compound 0.03 µM, first compound 0.3 µM",5.52%
same,"viability, T/C","second compound 0.0949 µM, first compound 0.000949 µM",83.4%
same,"viability, T/C","second compound 0.0949 µM, first compound 0.003 µM",80.9%
same,"viability, T/C","second compound 0.0949 µM, first compound 0.00949 µM",76.6%
same,"viability, T/C","second compound 0.0949 µM, first compound 0.03 µM",64.6%
same,"viability, T/C","second compound 0.0949 µM, first compound 0.0949 µM",14.6%
same,"viability, T/C","second compound 0.0949 µM, first compound 0.3 µM",1.56%
same,"viability, T/C","second compound 0.3 µM, first compound 0.000949 µM",20.1%
same,"viability, T/C","second compound 0.3 µM, first compound 0.003 µM",21.6%
same,"viability, T/C","second compound 0.3 µM, first compound 0.00949 µM",12.9%
same,"viability, T/C","second compound 0.3 µM, first compound 0.03 µM",8.55%
same,"viability, T/C","second compound 0.3 µM, first compound 0.0949 µM",1.72%
same,"viability, T/C","second compound 0.3 µM, first compound 0.3 µM",0.32%
same,"viability, T/C","second compound 0.949 µM, first compound 0.000949 µM",2.25%
same,"viability, T/C","second compound 0.949 µM, first compound 0.003 µM",1.92%
same,"viability, T/C","second compound 0.949 µM, first compound 0.00949 µM",1.01%
same,"viability, T/C","second compound 0.949 µM, first compound 0.03 µM",0.78%
same,"viability, T/C","second compound 0.949 µM, first compound 0.0949 µM",0.55%
same,"viability, T/C","second compound 0.949 µM, first compound 0.3 µM",1.54%
same,"viability, T/C","second compound 3 µM, first compound 0.000949 µM",0.73%
same,"viability, T/C","second compound 3 µM, first compound 0.003 µM",1.1%
same,"viability, T/C","second compound 3 µM, first compound 0.00949 µM",0.93%
same,"viability, T/C","second compound 3 µM, first compound 0.03 µM",1.16%
same,"viability, T/C","second compound 3 µM, first compound 0.0949 µM",1.19%
same,"viability, T/C","second compound 3 µM, first compound 0.3 µM",2%
